# Measured values: patent US10702506B2, “Small molecule inhibitors of pendrin ion exchange and pharmaceutical compositions” (THE REGENTS OF THE UNIVERSITY OF CALIFORNIA, priority 2016, dated 2020)
# Columns and labels:
# [1] = tested on: HBE and CFBE cell cultures; test: ASL pH by BCECF-dextran ratio imaging in HBE and CFBE cultures; type: cell-based, human; conditions: 25 μM, 4 hours
# Method: To investigate the possible involvement of pendrin in ASL pH regulation, fluorescence ratio imaging was done of the ASL in HBE and CFBE cultures after staining with BCECF-dextran. In the absence of IL-13-treatment, ASL pH was ˜0.3 pH units more acidic in CFBE than HBE cultures (FIG. 5C; pH ˜7.4 vs. ˜7.1), in agreement with prior studies showing relative ASL acidity in CF.
# ASL pH was measured using the pH-sensitive fluorophore BCECF conjugated to 10 kDa dextran (Invitrogen, Carlsbad, Calif.) as described, which was added 4-6 h prior to measurement (20 μl of 0.5 mg/ml in PBS). Cell inserts were incubated in HCO3^−-containing buffer (5% CO2 environment) and the ASL was imaged using a SMZ stereoscopic microscope (Nikon, Melville, N.Y.) equipped with a C9100 EM-CCD, Exfo XCite light source and BCECF filters (440/10X, 490/20X, 535/25M, Chroma, Bellows Falls, Vt.). In some experiments ASL pH was measured after PDSinh-A01 treatment, as described for ASL depth measurements. To relate BCECF fluorescence to pH, a calibration curve over the quasi-linear range of BCECF sensitivity was generated.
# pendrin = biological target: T1, pendrin (Homo sapiens, UniProt O43511); test: BCECF assay of Cl−/HCO3− exchange in primary HBE and CFBE cell cultures; type: cell-based; design: endogenous in cells; host or cells: primary human bronchial epithelial cultures from non-CF (HBE) and CF (CFBE) donors, with or without IL-13; conditions: 25 μM
# T1 sequence (O43511 1-780): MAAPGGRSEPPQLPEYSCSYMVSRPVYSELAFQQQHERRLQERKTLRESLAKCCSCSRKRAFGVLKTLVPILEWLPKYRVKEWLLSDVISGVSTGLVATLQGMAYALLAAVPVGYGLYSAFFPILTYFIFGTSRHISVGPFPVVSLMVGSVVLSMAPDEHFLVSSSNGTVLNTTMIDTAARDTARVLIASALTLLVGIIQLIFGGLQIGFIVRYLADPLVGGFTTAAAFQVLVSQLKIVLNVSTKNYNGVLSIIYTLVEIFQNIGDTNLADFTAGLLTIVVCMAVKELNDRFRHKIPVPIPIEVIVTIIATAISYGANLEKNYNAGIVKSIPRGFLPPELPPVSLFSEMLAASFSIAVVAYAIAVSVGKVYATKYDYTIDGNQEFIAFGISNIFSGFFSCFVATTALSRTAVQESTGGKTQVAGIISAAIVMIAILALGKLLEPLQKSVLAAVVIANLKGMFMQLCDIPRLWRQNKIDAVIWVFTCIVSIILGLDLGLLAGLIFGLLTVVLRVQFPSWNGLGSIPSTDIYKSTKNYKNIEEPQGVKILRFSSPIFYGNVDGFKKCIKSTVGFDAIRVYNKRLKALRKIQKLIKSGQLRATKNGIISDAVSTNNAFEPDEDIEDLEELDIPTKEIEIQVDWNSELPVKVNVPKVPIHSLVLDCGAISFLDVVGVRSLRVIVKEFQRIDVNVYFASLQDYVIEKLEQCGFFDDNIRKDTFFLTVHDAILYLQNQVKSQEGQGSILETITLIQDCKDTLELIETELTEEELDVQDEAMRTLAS
# Method: Bronchial tissues were obtained from non-CF (without significant airway disease) and CF subjects following lung transplantation, or from lungs donated for transplantation but subsequently found to be unsuitable for that purpose. Non-CF and CF human bronchial epithelial (HBE and CFBE, respectively) cell cultures were grown at an air-liquid interface as described in detail. At 21 days post-seeding, cells typically formed a tight epithelium (RTE>1000 Ωcm^2). In some experiments, the culture medium was supplemented with 10 ng/ml recombinant human IL-13 (Peprotech, Rocky Hill, N.J.) for 7 days starting at day 21 of culture. […] Pendrin transcript levels in human primary cells were measured by Taqman quantitative PCR using the Hs00166504_m1 probe set (ThermoFisher Scientific, Grand Island, N.Y.) at the UCSF Helen Diller Cancer Center Genome Analysis Core. […]
# Cytoplasmic pH (pHi) was measured to assay pendrin-mediated Cl^−/HCO3^− exchange in pendrin-expressing FRT cells and primary cell cultures using the pH-sensitive fluorescent probe BCECF. […] BCECF pH-sensitive fluorescence (490 nm excitation, 535 nm emission) was acquired at 0.5 Hz, with control experiments confirming that BCECF pH-insensitive fluorescence was not altered during exchange protocols. In some experiments pHi changes in the absence of HCO3^− were measured using buffers in which NaCl or Na gluconate replaced NaHCO3^−. […]
structure (smiles),measurement,setting,value
Cn1nc(COc2cccc(F)c2)c2c1CCN(C(=O)Nc1ccc(Cl)cc1)C2 [PDSinh-A01],"effect on ASL pH, IL-13-treated cultures",[1]; IL-13-treated,did not alter ASL pH
same,"effect on ASL pH, basal conditions",[1]; no IL-13,did not alter ASL pH
same,"effect on intracellular alkalinization in response to gluconate gradient, IL-13-treated cultures",pendrin; IL-13-treated,inhibited
same,"effect on pH changes in response to gluconate gradient, control cultures","pendrin; no added IL-13, 30 min",not altered
